Measurements as given in patent US9790229B2, “Bruton's tyrosine kinase inhibitors” (priority 2009, dated 2017).
Where two headings read alike, the source gives them in different places.

Target: BTK (Homo sapiens (Human), UniProt Q06187)
Test: In vitro BTK kinase assay: BTK-POLYGAT-LS ASSAY
[1] = read-out: IC50 (10 uM ATP), 10 uM ATP, in vitro Btk kinase assay, Example 41

Sequence of BTK (Q06187 whole entry): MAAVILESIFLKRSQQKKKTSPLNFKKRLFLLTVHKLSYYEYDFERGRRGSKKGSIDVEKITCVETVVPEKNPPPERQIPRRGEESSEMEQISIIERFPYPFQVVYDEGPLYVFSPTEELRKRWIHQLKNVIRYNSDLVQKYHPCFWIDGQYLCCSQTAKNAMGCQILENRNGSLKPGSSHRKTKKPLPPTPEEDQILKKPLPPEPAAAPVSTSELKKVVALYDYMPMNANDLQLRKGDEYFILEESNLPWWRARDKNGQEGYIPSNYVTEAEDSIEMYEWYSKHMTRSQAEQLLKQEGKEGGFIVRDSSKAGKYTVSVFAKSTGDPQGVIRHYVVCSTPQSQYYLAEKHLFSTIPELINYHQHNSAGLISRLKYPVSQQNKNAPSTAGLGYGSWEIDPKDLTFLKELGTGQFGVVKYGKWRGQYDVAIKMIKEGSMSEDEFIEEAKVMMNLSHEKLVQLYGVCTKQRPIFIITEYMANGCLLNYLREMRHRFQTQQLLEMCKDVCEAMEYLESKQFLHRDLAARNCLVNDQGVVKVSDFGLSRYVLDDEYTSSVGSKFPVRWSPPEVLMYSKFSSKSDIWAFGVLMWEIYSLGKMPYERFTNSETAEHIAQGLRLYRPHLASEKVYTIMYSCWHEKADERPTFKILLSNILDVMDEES

In the case of `O=C(Nc1ccccc1)Nc1cccc(C2CN(c3ncnc4[nH]ccc34)CCN2)c1` (stereo not shown) [compound 125, 1-(3-(4-(7H-pyrrolo[2,3-N]pyrimidin-4-yl)piperazin-2-yl)phenyl)-3-phenylurea], the IC50 is reported as 1000 to 10000 nM.
Compound `CC(=O)N1CCN(c2ncnc3[nH]ccc23)CC1c1cccc(NC(=O)Nc2ccccc2)c1` (stereo not shown) [compound 127, 1-(3-(1-acetyl-4-(7H-pyrrolo[2,3-d]pyrimidin-4-yl)piperazin-2-yl)phenyl)-3-phenylurea] has an IC50 [1] greater than 10000 nM.
`CS(=O)(=O)N1CCN(c2ncnc3[nH]ccc23)CC1c1cccc(NC(=O)Nc2ccccc2)c1` (stereo not shown) [compound 128, 1-(3-(1-(methylsulfonyl)-4-(7H-pyrrolo[2,3-d]pyrimidin-4-yl)piperazin-2-yl)phenyl)-3-phenylurea] gave an IC50 [1] greater than 10000 nM.
Work on `CC(C)CN1CCN(c2ncnc3[nH]ccc23)CC1c1cccc(NC(=O)Nc2ccccc2)c1` (stereo not shown) [compound 129, 1-(3-(1-isobutyl-4-(7H-pyrrolo[2,3-d]pyrimidin-4-yl)piperazin-2-yl)phenyl)-3-phenylurea] yielded an IC50 of 1000 to 10000 nM.
`CC(C)c1ccccc1NC(=O)Nc1cccc(C2CN(c3ncnc4[nH]ccc34)CCN2CCO)c1` (stereo not shown) [compound 133, 1-(3-(1-(2-hydroxyethyl)-4-(7H-pyrrolo[2,3-d]pyrimidin-4-yl)piperazin-2-yl)phenyl)-3-(2-isopropylphenyl)urea] showed an IC50 of 100 to 999 nM.
`O=C(Nc1cccc(C2CN(c3ncnc4[nH]ccc34)CCN2CCO)c1)Nc1c(Cl)cccc1Cl` (stereo not shown) [compound 134, 1-(2,6-Dichlorophenyl)-3-(3-(1-(2-hydroxyethyl)-4-(7H-pyrrolo[2,3-d]pyrimidin-4-yl)piperazin-2-yl)phenyl)urea] was tested, and the IC50 was 100 to 999 nM.
`O=C(Nc1cccc(C2CN(c3ncnc4[nH]ccc34)CCN2CCO)c1)Nc1c(F)cccc1N1CCCC1` (stereo not shown) [compound 135, 1-(2-Fluoro-6-(pyrrolidin-1-yl)phenyl)-3-(3-(1-(2-hydroxyethyl)-4-(7H-pyrrolo[2,3-d]pyrimidin-4-yl)piperazin-2-yl)phenyl)urea] showed an IC50 [1] of less than 100 nM.
`CN(C(=O)Nc1ccccc1)c1cccc(C2CCCN(c3ncnc4[nH]ccc34)C2)c1` (stereo not shown) [compound 136, 1-(3-(1-(7H-Pyrrolo[2,3-d]pyrimidin-4-yl)piperidin-3-yl)phenyl)-1-methyl-3-phenylurea] was tested, and the IC50 [1] was greater than 10000 nM.
`c1ccc(Nc2cccc(C3CCCN(c4ncnc5[nH]ccc45)C3)c2)nc1` (stereo not shown) [compound 140, N-(3-(1-(7H-pyrrolo[2,3-d]pyrimidin-4-yl)piperidin-3-yl)phenyl)pyridin-2-amine] gave an IC50 of 1000 to 10000 nM.
`c1cnc(Nc2cccc(C3CCCN(c4ncnc5[nH]ccc45)C3)c2)nc1` (stereo not shown) [compound 141, N-(3-(1-(7H-pyrrolo[2,3-d]pyrimidin-4-yl)piperidin-3-yl)phenyl)pyrimidin-2-amine] gave an IC50 [1] greater than 10000 nM.
Work on `FC(F)(F)c1ccc(Nc2cccc(C3CCCN(c4ncnc5[nH]ccc45)C3)c2)nc1` (stereo not shown) [compound 142, N-(3-(1-(7H-pyrrolo[2,3-d]pyrimidin-4-yl)piperidin-3-yl)phenyl)-5-(trifluoromethyl)pyridin-2-amine] yielded an IC50 [1] greater than 10000 nM.
With `FC(F)(F)c1cccnc1Nc1cccc(C2CCCN(c3ncnc4[nH]ccc34)C2)c1` (stereo not shown) [compound 143, N-(3-(1-(7H-pyrrolo[2,3-d]pyrimidin-4-yl)piperidin-3-yl)phenyl)-3-(trifluoromethyl)pyridin-2-amine] the IC50 [1] was greater than 10000 nM.
Work on `N#Cc1c(N)ncnc1N1CCCC(c2ccc(OC(F)(F)F)c(NC(=O)C3CCCCC3)c2)C1` (stereo not shown) [compound 144, N-(5-(1-(6-amino-5-cyanopyrimidin-4-yl)piperidin-3-yl)-2-(trifluoromethoxy)phenyl)cyclohexanecarboxamide] yielded an IC50 of 1000 to 10000 nM.
Compound `N#Cc1c(N)ncnc1N1CCCC(c2ccc(OC(F)(F)F)c(NC(=O)c3ccccc3Cl)c2)C1` (stereo not shown) [compound 145] has an IC50 of 100 to 999 nM.
Compound `O=C(Nc1cccc(C2CCCN(c3ncnc4[nH]ccc34)C2)c1)Nc1c(F)cccc1N1CCCC1` (stereo not shown) [compound 146] has an IC50 [1] of less than 100 nM.
Compound `O=C(Nc1cccc(C2CCCN(c3ncnc4[nH]ccc34)C2)c1)Nc1ccc(F)cc1N1CCCC1` (stereo not shown) [compound 147] has an IC50 [1] of less than 100 nM.
Compound `O=C(Nc1cccc(C2CCCN(c3ncnc4[nH]ccc34)C2)c1)Nc1ccccc1N1C[C@@H](O)[C@@H](O)C1` (stereo partly shown) [compound 148] has an IC50 [1] of less than 100 nM.
With `O=C(Nc1cccc(C2CCCN(c3ncnc4[nH]ccc34)C2)c1)Nc1ccccc1N1CC[C@@H](O)C1` (stereo partly shown) [compound 149] the IC50 [1] was less than 100 nM.
With `O=C(Nc1cccc(C2CCCN(c3ncnc4[nH]ccc34)C2)c1)Nc1ccccc1N1C[C@H](O)[C@@H](O)C1` (stereo partly shown) [compound 150] the IC50 [1] was less than 100 nM.
Work on `CC(C)c1ccccc1NC(=O)Nc1cccc(C2CCCN(c3ncnc4[nH]ccc34)C2)c1` (stereo not shown) [compound 151] yielded an IC50 [1] of less than 100 nM.
Work on `O=C(Nc1cccc(C2CCCN(c3ncnc4[nH]ccc34)C2)c1)Nc1ccccc1N1CCC[C@H]1CO` (stereo partly shown) [compound 152] yielded an IC50 [1] of less than 100 nM.
Compound `CC(C)c1cccc(C(C)C)c1NC(=O)Nc1cccc(C2CCCN(c3ncnc4[nH]ccc34)C2)c1` (stereo not shown) [compound 154] has an IC50 [1] of less than 100 nM.
`O=C(Nc1cccc(C2CCCN(c3ncnc4[nH]ccc34)C2)c1)Nc1ccccc1N1CC[C@H](O)C1` (stereo partly shown) [compound 155] showed an IC50 [1] of less than 100 nM.
Compound `CC(C)(C)c1ccccc1NC(=O)Nc1cccc([C@H]2CCCN(c3ncnc4[nH]ccc34)C2)c1` [compound 156] has an IC50 [1] of less than 100 nM.
Work on `CO[C@H]1CCN(c2ccccc2NC(=O)Nc2cccc(C3CCCN(c4ncnc5[nH]ccc45)C3)c2)C1` (stereo partly shown) [compound 157] yielded an IC50 [1] of less than 100 nM.
`O=C(Nc1cccc(C2CCCN(c3ncnc4[nH]ccc34)C2)c1)Nc1ccccc1N1C[C@@H](O)[C@H](O)C1` (stereo partly shown) [compound 158] showed an IC50 of 100 to 999 nM.
`C[C@@H]1CCCN1c1ccccc1NC(=O)Nc1cccc(C2CCCN(c3ncnc4[nH]ccc34)C2)c1` (stereo partly shown) [compound 159] was tested, and the IC50 was 100 to 999 nM.
`O=C(Nc1cccc(C2CCCN(c3ncnc4[nH]ccc34)C2)c1)Nc1cc(F)ccc1N1CCCC1` (stereo not shown) [compound 160] showed an IC50 of 100 to 999 nM.
For `O=C(Nc1cccc(C2CCCN(c3ncnc4[nH]ccc34)C2)c1)Nc1c(Cl)cccc1C(F)(F)F` (stereo not shown) [compound 161], the IC50 was 100 to 999 nM.
Work on `O=C(Nc1cccc(C2CCCN(c3ncnc4[nH]ccc34)C2)c1)Nc1ccccc1N1CC[C@@H](F)C1` (stereo partly shown) [compound 162] yielded an IC50 of 100 to 999 nM.
With `O=C(Nc1cccc(C2CN(c3ncnc4[nH]ccc34)CCC2CO)c1)Nc1ccccc1N1CCCC1` (stereo not shown) [compound 163] the IC50 was 100 to 999 nM.
In the case of `N[C@@H]1CCN(c2ccccc2NC(=O)Nc2cccc(C3CCCN(c4ncnc5[nH]ccc45)C3)c2)C1` (stereo partly shown) [compound 164], the IC50 is reported as 100 to 999 nM.
With `O=C(Nc1cccc(C2CCCN(c3ncnc4[nH]ccc34)C2)c1)Nc1ccccc1N1CCOCC1` (stereo not shown) [compound 165] the IC50 was 100 to 999 nM.
`O=C(NCC1CCCC1)Nc1cccc(C2CCCN(c3ncnc4[nH]ccc34)C2)c1` (stereo not shown) [compound 166] gave an IC50 of 100 to 999 nM.
`CC(C)(C)c1ccccc1NC(=O)Nc1cccc(C2CCCN(c3ncnc4[nH]ccc34)C2)c1` (stereo not shown) [compound 167] was tested, and the IC50 was 100 to 999 nM.
`O=C(Nc1cccc(C2CCCN(c3ncnc4[nH]ccc34)C2)c1)Nc1ccccc1N1CCC(F)(F)C1` (stereo not shown) [compound 168] was tested, and the IC50 was 100 to 999 nM.
In the case of `N[C@H]1CCN(c2ccccc2NC(=O)Nc2cccc(C3CCCN(c4ncnc5[nH]ccc45)C3)c2)C1` (stereo partly shown) [compound 169], the IC50 is reported as 100 to 999 nM.
`O=C(Nc1cccc(C2CCCN(c3ncnc4[nH]ccc34)C2)c1)Nc1ccccc1N1CCCC1=O` (stereo not shown) [compound 170] gave an IC50 of 100 to 999 nM.
With `O=C(Nc1cccc(C2CCN(c3ncnc4[nH]ccc34)C2)c1)Nc1ccccc1N1CCCC1` (stereo not shown) [compound 171] the IC50 was 100 to 999 nM.
`O=C(Nc1cccc(C2CCCN(c3ncnc4[nH]ccc34)C2)c1)Nc1ccccc1C(F)(F)F` (stereo not shown) [compound 173] was tested, and the IC50 was 100 to 999 nM.
